{"source": "patent US11092549B2", "about": "“Fluorescent probes for drug permeability in gram negative bacteria” (Saint Louis University, priority 2018, dated 2021)", "key": {"[1]": {"system": "E. coli strains BW25113, ΔEfflux, WT-Pore and ΔEfflux-Pore", "assay": "Fluorescence-based intracellular uptake of compounds in efflux-proficient, efflux-deficient and hyperporinated cells (FIG. 3)", "conditions": "when the cell envelope is compromised, excitation 335 nm", "procedure": "For Hoechst or compound uptake experiments, overnight grown cells will be re-inoculated into 30 ml LB broth and grown until OD600 of 1. The cells will then pelleted by centrifugation for 15 min at room temperature and washed once in HMG buffer. The pellet will be resuspended in HMG buffer to OD600 of 2.0 and kept at room temperature during the course of the experiment. For the efflux inhibition or uptake kinetics, 100 μl of Hoechst or compound solution in HMG buffer with and without increasing concentrations of inhibitors at twice the concentrations indicated will be added into a black F-bottom non-binding 96-well plate. Fluorescence of Hoechst or compounds will be followed at λex=355 nm and λem=450 nm. To this, 100 μl of cells at OD600 of 2.0 was injected, shaken for 6 sec and the fluorescence of Hoechst will be monitored continuously for up to 10 min.\nThe inventors will use a fluorescence-based assay in which a fluorescent probe, a substrate of efflux pumps, reports EPI activities. Exponentially grown cells will be transferred into a defined medium, dispensed into 96-well plates with increasing concentrations of EPIs, and incubated for a pre-determined time. The probe will be added to cells and fluorescence recorded at different time points. Compounds with efflux inhibiting activities will increase the uptake of the probe and as a result increase the probe fluorescence (FIG. 3) (Abdali et al., 2017). The reverse kinetic curves, in which the concentration of the compound is fixed while the probe concentration varies, will be also collected. Detailed quantification of the kinetic data will be performed using two probes: a DNA dye Hoechst 33342 (HT) (Eicher et al., 2012; Nakashima et al., 2011 and Richmond et al., 2013) and a novel SLU-417 probe that were synthesized during a focused synthetic effort (Haynes et al., 2017). HT is a topoisomerase inhibitor with the MIC 2 μM in Δ6-Pore cells. In contrast, SLU-417 is relatively inert with MIC≥50 μM, which should reduce possible non-specific effect during drug uptake measurements.\nExperiments were carried out in four E. coli strains, BW25113, a wild type strain with efflux pumps, ΔEfflux, a cell line in which the efflux pumps have been inactivated by removal of tolC gene and their hyperporinated variants WT-Pore and ΔEfflux-Pore. Four compounds were tested in these cell lines which show increased fluorescence intensity in cells in which the efflux pumps have been removed (FIG. 3)."}, "[2]": {"system": "Δ6-Pore cells", "assay": "Minimal inhibitory concentration (MIC) of fluorescent probes", "format": "cell-based, P. aeruginosa", "source_text": "For assessing antibacterial activities, compounds will be analyzed against four strains of P. aeruginosa: WT and ΔEfflux (lacking mexAB-OprM, mexCD-OprJ, mexXY), and their hyperporinated variants WT-Pore and ΔEfflux-Pore (FIGS. 2A-C) (Krishnamoorthy et al., 2016 and Krishnamoorthy et al., 2017). Based on minimal inhibitory concentrations (MIC) and growth IC50, compounds will be grouped as affected by efflux or by OM barriers. […] The inventors expect that at least 50% of the compounds in the library will have antibacterial activities in the hyperporinated efflux-deficient ΔEfflux-Pore. The -fold changes in MICs in the four strains will be used to guide selection of the compounds for detailed studies.\nThe inventors will use a fluorescence-based assay in which a fluorescent probe, a substrate of efflux pumps, reports EPI activities. Exponentially grown cells will be transferred into a defined medium, dispensed into 96-well plates with increasing concentrations of EPIs, and incubated for a pre-determined time. The probe will be added to cells and fluorescence recorded at different time points. Compounds with efflux inhibiting activities will increase the uptake of the probe and as a result increase the probe fluorescence (FIG. 3) (Abdali et al., 2017). […]"}, "[3]": {"system": "E. coli BW25113 and P. aeruginosa PAO1", "assay": "Screen of NCI Diversity sets for antibacterial and EPI activities, with profiling of actives", "format": "cell-based", "source_text": "The inventors screened NCI Diversity sets in E. coli BW25113 and P. aeruginosa PAO1 for antibacterial and EPI activities. From ˜2,000 compounds tested, the inventors identified 34 active compounds (Abdali et al., 2017). […] Synthetic procedures for modifying NSC 60339 has been described before (Abdali et al., 2017 and Gamage et al., 2013). Because clinically-important antibiotics are extensively optimized, the inventors have chosen to focus on fluoroquinolones, tetracyclines, oxazolidinones, phenicols and macrolides/ketolides representatives that are known to penetrate through both the LPS-phospholipid bilayer and porins of the OM and include both broad and narrow spectrum antibiotics."}}}
{"smiles": "O=C(Nc1ccc(C2=NCCN2)cc1)c1ccc(-c2cc(Cl)cc(Cl)c2)s1", "note": "[SLU-446]", "values": [{"measurement": "intracellular uptake", "setting": "[1]", "result": "increases"}]}
{"smiles": "O=C(Nc1ccc(C2=NCCN2)cc1)c1cc2cc(Cl)ccc2o1", "note": "[SLU-843]", "values": [{"measurement": "intracellular uptake", "setting": "[1]", "result": "increases"}]}
{"smiles": "CC(C)c1ccc(/C=C/C(=O)Nc2ccc(C3=NCCN3)cc2)cc1", "note": "[SLU-417]", "values": [{"measurement": "intracellular uptake", "setting": "[1]", "result": "increases"}, {"measurement": "MIC", "setting": "[2]; Pseudomonas aeruginosa", "result": "≥ 50", "unit": "µM"}]}
{"smiles": "O=C(Nc1ccc(C2=NCCN2)cc1)c1ccc(C(=O)Nc2ccc(C3=NCCN3)cc2)c(Cl)c1", "note": "[NSC 60339]", "values": [{"measurement": "antibacterial and anti-MFP (Membrane Fusion Protein) activities", "setting": "[3]", "result": "have both antibacterial and anti-MFP"}, {"measurement": "substrate of efflux pumps", "setting": "[3]", "result": "modest substrate of efflux pumps"}]}
{"smiles": "COc1ccc(/C=C/C(=O)Nc2ccc(C3=NCCN3)cc2)cc1", "note": "[SLU-448]", "values": [{"measurement": "intracellular uptake", "setting": "[1]", "result": "increases"}]}
{"smiles": "CCOc1ccc(-c2nc3ccc(-c4nc5ccc(N6CCN(C)CC6)cc5[nH]4)cc3[nH]2)cc1", "note": "[HT, Hoechst 33342, reference compound]", "values": [{"measurement": "MIC", "setting": "[2]; Δ6-Pore cells", "result": 2, "unit": "µM"}]}
